Key:
[1] = test system: mouse bone marrow mesenchymal stem cell line (MSC-1 cells), PDGFRα-positive; experiment: Migration assay (Boyden / 48-well chemotaxis chamber) on bone marrow mesenchymal stem cell line MSC-1; format: cell-based
How it was run: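 Mouse MSC-1 cells (3×10^6 cells/ml in D-MEM with 10% FBS) loaded in the upper wells of a 48-well Boyden chamber with 8 μm polycarbonate membrane; mouse HMGB1 peptides or HEK293-made HMGB1 in lower wells at 100 μg/ml, 5 μM or 10 μM; PBS as negative control. After 4 h at 37° C, migrated cells were Diff-Quik stained.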

[2] = test system: PDGFRα-positive, CD44-positive cells in the peripheral blood; experiment: Mobilization of PDGFRα-positive, CD44-positive cells into peripheral blood (FACS); format: in vivo, mouse; conditions: 10 μg via the caudal vein, C57Bl6 mice, blood after 12 hours; PBS group 1.33%
Procedure: 10 μg of synthetic peptide (amino acids of positions 1 to 44) was dissolved in 200 μl of PBS and administered to C57B16 mice (female, 8 weeks old) via the caudal vein using a syringe with 30-gauge needle. An equal volume of PBS was administered as a negative control. After 12 hours, peripheral blood was collected from the left ventricle of the heart under systemic anesthesia with isoflurane. After adding 3 ml of PBS (Nacalai tesque; Cat. 14249-95), 3 ml of Ficoll-Paque Plus (GE Healthcare; Cat. 17-1440-02) was overlaid onto the blood. The blood was centrifuged in a centrifuge at 400 G and 25° C. for 45 minutes. The upper serum layer was discarded, and only the cells seen as a white band in the intermediate layer were collected. Then, 45 ml of PBS was added to the collected cells, and centrifuged in a centrifuge at 800 G and 25° C. for 20 minutes. After the supernatant was discarded, 10 ml of PBS was added and centrifuged at 1500 rpm and 25° C. for 10 minutes. The supernatant was discarded and 1 ml of hemolysis buffer (HLB; Immuno-Biological Laboratories) was added to the cells. After pipetting, the cells were allowed to stand for 5 minutes. Then, 10 ml of PBS was added to the cells and centrifuged at 1500 rpm and 25° C. for 10 minutes. […] The cells prepared as described above were analyzed using FACSCant™ II.

[3] = test system: skin flap made on the back of a rat; experiment: Skin flap (skin damage) model on the back of rats; format: in vivo; conditions: six weeks after skin flap production; 50 μg/administration/day, five administrations, FIG. 26
[4] = 2 μM, area of migrated cells by image analysis, FIG. 10

## synthetic peptide (1-44): chemically synthesized HMGB1 peptide, amino acids 1 to 44, mouse HMGB1 sequence (MGKGDPKKPRGKMSSYAFFVQTCREEHKKKHPDASVNFSEFSKK; UniProt P63158 1-44, looked up, fragment)
[1]; [4]
  migration-promoting activity relative to the full-length HMGB1, compared per equal mass: 2.86 times
  migration-promoting activity relative to the full-length HMGB1, compared per equal mole: 0.57 times
[1]; synthetic peptides, 100 μg/ml, positive control 1-215(HEK), FIG. 7
  migration-promoting activity: activity comparable to or higher than that of the positive control
[2]
  proportion of PDGFRα-positive, CD44-positive cells in the peripheral blood, average: 4.33%
[3]
  ratio of the uncured area relative to the area of the whole skin flap, average: 4.1%

From US10550165B2, “Peptide for inducing regeneration of tissue and use thereof” (STEMRIM INC., priority 2011, dated 2020)
